In US20090131417A1, “SUBSTITUTED PYRIDYL AMIDE COMPOUNDS AS MODULATORS OF THE HISTAMINE H3 RECEPTOR” (priority 2007, published 2009):

Columns and labels:
[1] = molecular target: T1, cloned human H3 receptors, stably expressed in SK-N-MC cells (Homo sapiens, UniProt Q9Y5N1); test: H3 Receptor Binding (Human); conditions: average of results obtained
T1 construct: expressed in transfected cells; host or cells: SK-N-MC cells
Protocol: Binding of compounds to the cloned human H3 receptors, stably expressed in SK-N-MC cells, was performed as described by Barbier, A. J. et al. (Br. J. Pharmacol. 2004, 143(5), 649-661). Data for compounds tested in this assay are presented in Table 1, as an average of results obtained.

[2] = molecular target: T2, human H3 receptor (Homo sapiens, UniProt Q9Y5N1); test: Cyclic AMP Accumulation (human H3); type: cell-based; conditions: SK-N-MC cells expressing reporter construct and human H3 receptor, Example 1 tested as TFA salt; for Kb: read-out: Human pA2 (converted)
T2 construct: expressed in transfected cells; host or cells: SK-N-MC cells
T2 sequence (Q9Y5N1 whole entry): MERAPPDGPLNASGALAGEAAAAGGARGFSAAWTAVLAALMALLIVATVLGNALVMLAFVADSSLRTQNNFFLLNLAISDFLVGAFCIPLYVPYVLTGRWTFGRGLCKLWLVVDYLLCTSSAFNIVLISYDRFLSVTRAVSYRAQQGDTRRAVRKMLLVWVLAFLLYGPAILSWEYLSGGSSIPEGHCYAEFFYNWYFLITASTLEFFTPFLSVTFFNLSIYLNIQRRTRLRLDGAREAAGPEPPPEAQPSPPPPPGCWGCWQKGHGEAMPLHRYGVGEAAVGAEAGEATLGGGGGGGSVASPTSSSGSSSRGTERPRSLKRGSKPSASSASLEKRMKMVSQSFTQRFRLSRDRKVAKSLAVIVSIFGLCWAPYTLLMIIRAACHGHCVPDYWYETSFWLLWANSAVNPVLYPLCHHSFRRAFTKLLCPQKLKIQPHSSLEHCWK
Protocol: (§1) Sublines of SK-N-MC cells were created that expressed a reporter construct and either the human or rat H3 receptor. The pA2 values were obtained as described by Barbier et al. (2004). Example 1 was tested as the corresponding TFA salt.

[3] = molecular target: T3, rat H3 receptor (Rattus norvegicus, UniProt Q9QYN8); test: Cyclic AMP Accumulation (rat H3); type: cell-based; conditions: SK-N-MC cells expressing reporter construct and rat H3 receptor; Example 1 tested as TFA salt; read-out: Rat pA2 (converted)
T3 construct: expressed in transfected cells; host or cells: SK-N-MC cells (subline with reporter construct)
T3 sequence (Q9QYN8 whole entry): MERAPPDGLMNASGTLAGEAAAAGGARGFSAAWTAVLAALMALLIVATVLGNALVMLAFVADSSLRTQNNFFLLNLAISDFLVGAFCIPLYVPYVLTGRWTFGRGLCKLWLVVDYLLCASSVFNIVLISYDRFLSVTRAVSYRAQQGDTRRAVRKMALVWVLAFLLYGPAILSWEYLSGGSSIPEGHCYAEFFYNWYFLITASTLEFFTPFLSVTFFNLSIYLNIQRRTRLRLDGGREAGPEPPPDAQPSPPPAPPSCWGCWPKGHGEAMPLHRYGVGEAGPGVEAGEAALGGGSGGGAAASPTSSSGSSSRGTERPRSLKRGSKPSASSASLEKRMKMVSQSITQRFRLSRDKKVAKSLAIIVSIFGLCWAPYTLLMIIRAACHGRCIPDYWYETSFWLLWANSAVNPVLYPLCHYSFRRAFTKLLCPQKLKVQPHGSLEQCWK
Protocol: as §1

[4] = molecular target: T4, rat H3 receptor (rat brain membranes) (Rattus norvegicus, UniProt Q9QYN8); test: H3 Receptor Binding (Rat); conditions: rat brain without cerebellum membranes; 0.8 nM N-[3H]-alpha-methylhistamine; IC50 converted to Ki (Kd 0.8 nM); tested as the corresponding TFA salt
T4 construct: A rat brain without cerebellum (Zivic Laboratories Inc., Pittsburgh, Pa.) was homogenized; tissue Zivic Laboratories Inc; host or cells: rat brain without cerebellum, membranes
T4 sequence (Q9QYN8 whole entry): as above
Protocol: A rat brain without cerebellum (Zivic Laboratories Inc., Pittsburgh, Pa.) was homogenized in 50 mM Tris-HCl/5 mM EDTA and centrifuged at 1,000 rpm for 5 min. The supernatant was removed and recentrifuged at 15,000 rpm for 30 min. Pellets were rehomogenized in 50 mM Tris/5 mM EDTA (pH 7.4). Membranes were incubated with 0.8 nM N—[^3H]-α-methylhistamine plus/minus test compounds for 60 min at 25° C. and harvested by rapid filtration over GF/C glass fiber filters (pretreated with 0.3% polyethylenimine) followed by four washes with buffer. Nonspecific binding was defined in the presence of 100 μM histamine. Inhibitory concentration (responsible for 50% inhibition of maximal effect, IC50) values were determined by a single site curve-fitting program (GraphPad, San Diego, Calif.) and converted to Ki values based on a N—[^3H]-α-methylhistamine dissociation constant (Kd) of 0.8 nM. The following results were obtained: Example 2, 28 nM; Example 6, 50 nM (tested as the corresponding TFA salt).

T1 sequence (Q9Y5N1 whole entry): as the sequence (Q9Y5N1 whole entry) above

Ki [1] [nM]	other results	Structure (SMILES)
3.4	–	COc1cccc(Oc2cncc(C(=O)N3CCCN(C4CCC4)CC3)c2)c1 [Example 5, (4-Cyclobutyl-[1,4]diazepan-1-yl)-[5-(3-methoxy-phenoxy)-pyridin-3-yl]-methanone]
2.9	Kb [2]: 3.98 nM; Kb [3]: 43.7 nM	O=C(c1cncc(Sc2ccc(F)cc2)c1)N1CCCN(C2CCC2)CC1 [Example 8, (4-Cyclobutyl-[1,4]diazepan-1-yl)-[5-(4-fluoro-phenylsulfanyl)-pyridin-3-yl]-methanone]
12	–	O=C(c1cc(Sc2ccc(F)cc2)ccn1)N1CCCN(C2CCC2)CC1 [Example 15, (4-Cyclobutyl-[1,4]diazepan-1-yl)-[4-(4-fluoro-phenylsulfanyl)-pyridin-2-yl]-methanone]
18	–	O=C(c1cncc(Sc2ncccn2)c1)N1CCCN(C2CCC2)CC1 [Example 11, (4-Cyclobutyl-[1,4]diazepan-1-yl)-[5-(pyrimidin-2-ylsulfanyl)-pyridin-3-yl]-methanone]
3	–	CC(C)Sc1cncc(C(=O)N2CCCN(C3CCC3)CC2)c1 [Example 9, (4-Cyclobutyl-[1,4]diazepan-1-yl)-(5-isopropylsulfanyl-pyridin-3-yl)-methanone]
1.9	Kb [2]: 0.955 nM; Kb [3]: 6.17 nM	N#Cc1cccc(Oc2cncc(C(=O)N3CCCN(C4CCC4)CC3)c2)c1 [Example 3, 3-[5-(4-Cyclobutyl-[1,4]diazepane-1-carbonyl)-pyridin-3-yloxy]-benzonitrile]
1	Kb [2]: 2.4 nM; Kb [3]: 20.4 nM; Ki [4]: 50 nM	O=C(c1cncc(Oc2cccc(F)c2)c1)N1CCCN(C2CCC2)CC1 [Example 6, (4-Cyclobutyl-[1,4]diazepan-1-yl)-[5-(3-fluoro-phenoxy)-pyridin-3-yl]-methanone]
3.6	Human pA2 [2]: 8.87; Kb [3]: 28.8 nM	O=C(c1cncc(Oc2ccc(F)cc2)c1)N1CCCN(C2CCC2)CC1 [Example 1, (4-Cyclobutyl-[1,4]diazepan-1-yl)-[5-(4-fluoro-phenoxy)-pyridin-3-yl]-methanone]
11	–	O=C(c1cc(Oc2ccccc2)ccn1)N1CCCN(C2CCC2)CC1 [Example 13, (4-Cyclobutyl-[1,4]diazepan-1-yl)-(4-phenoxy-pyridin-2-yl)-methanone]
3.2	Ki [4]: 28 nM	O=C(c1cncc(Oc2cccc(Cl)c2)c1)N1CCCN(C2CCC2)CC1 [Example 2, [5-(3-Chloro-phenoxy)-pyridin-3-yl]-(4-cyclobutyl-[1,4]diazepan-1-yl)-methanone]
1.8	–	O=C(c1cncc(Sc2ccncc2)c1)N1CCCN(C2CCC2)CC1 [Example 12, (4-Cyclobutyl-[1,4]diazepan-1-yl)-[5-(pyridin-4-ylsulfanyl)-pyridin-3-yl]-methanone]
17	–	O=C(c1cc(Oc2ccc(F)cc2)ccn1)N1CCCN(C2CCC2)CC1 [Example 14, (4-Cyclobutyl-[1,4]diazepan-1-yl)-[4-(4-fluoro-phenoxy)-pyridin-2-yl]-methanone]
3.4	–	O=C(c1cncc(Oc2ccccc2)c1)N1CCCN(C2CCC2)CC1 [Example 4, (4-Cyclobutyl-[1,4]diazepan-1-yl)-(5-phenoxy-pyridin-3-yl)-methanone]
6.6	–	O=C(c1cncc(Sc2ccccn2)c1)N1CCCN(C2CCC2)CC1 [Example 10, (4-Cyclobutyl-[1,4]diazepan-1-yl)-[5-(pyridin-2-ylsulfanyl)-pyridin-3-yl]-methanone]
11	–	CC(C)Oc1cncc(C(=O)N2CCCN(C3CCC3)CC2)c1 [Example 7, (4-Cyclobutyl-[1,4]diazepan-1-yl)-(5-isopropoxy-pyridin-3-yl)-methanone]
